For one experiment, the system named is Cyclooxygenase. The experiment can be described thus: Formation of prostaglandin D2 by neutrophils as measure of cyclooxygenase activity (A23187 stimulation, RIA). Format: cell-based, Sprague Dawley Ratten. As to the method: (§1) Die Bildung von Prostaglandin D2 durch Neutrophile wurde als Maß für die Cyclooxygenase-Aktivität verwendet und die Bildung von Leukotrien B4 als Maß für die 5-Lipoxygenase-Aktivität. Männlichen Sprague Dawley Ratten (250-300 g) wurde lamda - Carrageenan 1 mg intraperitoneal (gelöst in 0.5 ml dest. Wasser) injiziert. Nach 16 Stunden wurden die Ratten durch Exposition in Diethylether getötet. 15 ml eiskalte Hanks balanced salt solution (HBSS) wurden i.p. injiziert, die Neutrophilen durch Absaugen geerntet (10 ml), zentrifugiert (5 min, 100g, 4°C), die überstehende Lösung dekantiert und die Zellen in HBSS resuspendiert bei 4 °C bis zu einer Konzentration von 5x10⁶ Zellen/ml. 400 µl Zellsuspension (2x10⁶ Zellen), 0,5µl Verbindung gelöst in DMSO und 49,5 µl HBSS wurden 5 min bei 37°C inkubiert. Dann wurden 50 µl A23187 (2µmol/l Endkonzentration) zugefügt und anschließend wiederum 5 min bei 37°C inkubiert. Die Reaktion wurde durch Zentrifugieren 10000g, 3s gestoppt und die überstehende Flüssigkeit in vorgekühlte Plastikröhrchen übergeführt und vor dem Beginn der Radioimmunoassay-Messung im Eisbad max. 1 h belassen. PGD2 und LTB4 wurde nach Verdünnung mit HBSS mit Hilfe kommerzieller RIA-Kits gemessen. Als Vergleichssubstanz diente 6-Chlor-4-hydroxy-2-methyl-N-(2-pyridyl)-2H-thieno(2,3-e)1,2-thiazin-3carboxamid-1,1-dioxid ("Lornoxicam", Vbg.A)

For a further experiment, the target named is T1, 5-Lipoxygenase (Rattus norvegicus, UniProt P12527).
T1 sequence (P12527 1-673): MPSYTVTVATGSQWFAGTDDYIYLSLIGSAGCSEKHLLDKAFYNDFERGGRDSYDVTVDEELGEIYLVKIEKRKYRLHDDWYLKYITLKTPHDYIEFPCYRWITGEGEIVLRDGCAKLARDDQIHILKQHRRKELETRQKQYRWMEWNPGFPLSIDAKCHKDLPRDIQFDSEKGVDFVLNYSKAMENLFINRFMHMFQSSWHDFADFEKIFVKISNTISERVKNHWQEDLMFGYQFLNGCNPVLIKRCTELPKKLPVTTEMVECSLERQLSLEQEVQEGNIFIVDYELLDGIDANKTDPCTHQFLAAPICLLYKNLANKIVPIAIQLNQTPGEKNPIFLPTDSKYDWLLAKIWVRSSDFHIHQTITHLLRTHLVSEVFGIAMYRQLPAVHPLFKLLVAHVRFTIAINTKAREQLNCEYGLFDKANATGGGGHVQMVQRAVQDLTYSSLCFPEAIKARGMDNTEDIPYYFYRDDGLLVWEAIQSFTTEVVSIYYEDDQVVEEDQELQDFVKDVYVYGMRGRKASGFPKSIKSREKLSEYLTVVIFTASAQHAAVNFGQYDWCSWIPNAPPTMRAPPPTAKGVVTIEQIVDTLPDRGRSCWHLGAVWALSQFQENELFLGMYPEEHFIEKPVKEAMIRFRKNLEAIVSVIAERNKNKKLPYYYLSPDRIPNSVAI
As to the kind of experiment: Formation of leukotriene B4 by neutrophils as measure of 5-lipoxygenase activity (A23187 stimulation, RIA). The experiment is classed as cell-based, Sprague Dawley Ratten. On the procedure: as §1

The mark [1] stands for this setting: rat peritoneal neutrophils (carrageenan-elicited), 2x10⁶ cells, A23187 2 µmol/l, 5 min 37°C, LTB4 by RIA, read-out: IC50 (µmol/l) LTB4.
Setting [2] is: read-out: IC50 (µmol/l) PGD2, rat peritoneal neutrophils (carrageenan-elicited), 2x10⁶ cells, A23187 2 µmol/l, 5 min 37°C.

Each structure is given as a SMILES string. Read-outs that look alike come from different tables or passages of the source.

`CN1C(C(=O)Nc2ccccn2)=C(O)c2sc(Cl)cc2S1(=O)=O` [A]: the IC50 in the experiment with Cyclooxygenase (rat peritoneal neutrophils (carrageenan-elicited), 2x10⁶ cells, A23187 2 µmol/l, 5 min 37°C, PGD2 by RIA, read-out: IC50 (µmol/l) PGD2) was 0.02 µmol/L; on 5-Lipoxygenase (setting [1]), more than 10 µmol/L.
On to `CN1C(C(=O)Nc2cccc(-c3cc4ccccc4s3)n2)=C(O)c2sc(Cl)cc2S1(=O)=O` [Vbg 1, N-[6-(2-Benzo[b]thienyl)-2-pyridinyl]-6-chlor-4-hydrory-2-methyl-2H-thieno[2,3-e][1,2]thiazin-3-carboxamid-1,1-dioxid], for which the IC50 turned out to be 0.049 µmol/L in the experiment with Cyclooxygenase (setting [2]) and 2 µmol/L at 5-Lipoxygenase (setting [1]).
For `CN1C(C(=O)Nc2cccc(-c3ccc(Oc4ccc(F)cc4)o3)n2)=C(O)c2sc(Cl)cc2S1(=O)=O` [Vbg 4, 6-Chlor-N-{6-[5-(4-fluorphenoxy)-2-furyl]-2-pyridinyl}-4-hydroxy-2-methyl-2H-thieno[2,3-e]-1,2-thiazin-3-carboxamid-1,1-dioxid], the IC50 was 1.7 µmol/L with Cyclooxygenase (setting [2]) and 1.3 µmol/L on 5-Lipoxygenase (setting [1]).
On to `CN1C(C(=O)Nc2cccc(-c3ccc(-c4ccccc4)cc3)n2)=C(O)c2sc(Cl)cc2S1(=O)=O` [Vbg 2, N-[6-(4-Biphenyl)-2-pyridinyl]-6-chlor-4-hydroxy-2-methyl-2H-thieno[2,3-e][1,2]thiazin-3-carboxamid-1,1-dioxid], for which the values for the IC50 in the experiment on Cyclooxygenase (setting [2]) and on 5-Lipoxygenase were 3.5 µmol/L and 1.4 µmol/L, respectively.
As for `CN1C(C(=O)Nc2cccc(-c3cc4ccccc4o3)n2)=C(O)c2sc(Cl)c(Cl)c2S1(=O)=O` [Vbg 5, N-[6-(2-Benzo[b]furyl)-2-pyridinyl]-6,7-dichlor-4-hydroxy-2-methyl-2H-thieno-[2,3-e][1,2]thiazin-3-carboxamid-1,1-dioxid], the IC50 with Cyclooxygenase (setting [2]) is 0.036 µmol/L; at 5-Lipoxygenase (setting [1]), 1.3 µmol/L.
Regarding `CN1C(C(=O)Nc2cccc(-c3cccc(Oc4ccc(F)cc4)c3)n2)=C(O)c2sc(Cl)cc2S1(=O)=O` [Vbg 3, 6-Chlor-N-{6-[3-(4-fluorphenoxy)phenyl]-2-pyridinyl}-4-hydroxy-2-methyl-2H-thieno[2,3-e]-1,2-thiazin-3-carboxamid-1,1-dioxid], the IC50 turned out to be 0.45 µmol/L in the experiment with Cyclooxygenase (setting [2]) and 1.7 µmol/L on 5-Lipoxygenase (setting [1]).
